From patent US10556898B2, “Indazolyl-1,2,4-thiadiazolamines and related compounds for inhibition of Rho-associated protein kinase and the treatment of disease” (Lycera Corporation, priority 2016, dated 2020)
Like-named read-outs stand apart in the source and are kept apart here.

Key:
[1] = biological target: T1, ROCK1 (Homo sapiens, UniProt Q13464); test: Cell-Based Assay, ROCK1 (HAP1 knockout cells, phospho-MYPT1 Thr853 ELISA); details: read-out: Results from Cell-Based Assay IC50 (μM) ROCK1
T1 construct: endogenous in cells; host or cells: HAP1 knockout cells
T1 sequence (Q13464 whole entry): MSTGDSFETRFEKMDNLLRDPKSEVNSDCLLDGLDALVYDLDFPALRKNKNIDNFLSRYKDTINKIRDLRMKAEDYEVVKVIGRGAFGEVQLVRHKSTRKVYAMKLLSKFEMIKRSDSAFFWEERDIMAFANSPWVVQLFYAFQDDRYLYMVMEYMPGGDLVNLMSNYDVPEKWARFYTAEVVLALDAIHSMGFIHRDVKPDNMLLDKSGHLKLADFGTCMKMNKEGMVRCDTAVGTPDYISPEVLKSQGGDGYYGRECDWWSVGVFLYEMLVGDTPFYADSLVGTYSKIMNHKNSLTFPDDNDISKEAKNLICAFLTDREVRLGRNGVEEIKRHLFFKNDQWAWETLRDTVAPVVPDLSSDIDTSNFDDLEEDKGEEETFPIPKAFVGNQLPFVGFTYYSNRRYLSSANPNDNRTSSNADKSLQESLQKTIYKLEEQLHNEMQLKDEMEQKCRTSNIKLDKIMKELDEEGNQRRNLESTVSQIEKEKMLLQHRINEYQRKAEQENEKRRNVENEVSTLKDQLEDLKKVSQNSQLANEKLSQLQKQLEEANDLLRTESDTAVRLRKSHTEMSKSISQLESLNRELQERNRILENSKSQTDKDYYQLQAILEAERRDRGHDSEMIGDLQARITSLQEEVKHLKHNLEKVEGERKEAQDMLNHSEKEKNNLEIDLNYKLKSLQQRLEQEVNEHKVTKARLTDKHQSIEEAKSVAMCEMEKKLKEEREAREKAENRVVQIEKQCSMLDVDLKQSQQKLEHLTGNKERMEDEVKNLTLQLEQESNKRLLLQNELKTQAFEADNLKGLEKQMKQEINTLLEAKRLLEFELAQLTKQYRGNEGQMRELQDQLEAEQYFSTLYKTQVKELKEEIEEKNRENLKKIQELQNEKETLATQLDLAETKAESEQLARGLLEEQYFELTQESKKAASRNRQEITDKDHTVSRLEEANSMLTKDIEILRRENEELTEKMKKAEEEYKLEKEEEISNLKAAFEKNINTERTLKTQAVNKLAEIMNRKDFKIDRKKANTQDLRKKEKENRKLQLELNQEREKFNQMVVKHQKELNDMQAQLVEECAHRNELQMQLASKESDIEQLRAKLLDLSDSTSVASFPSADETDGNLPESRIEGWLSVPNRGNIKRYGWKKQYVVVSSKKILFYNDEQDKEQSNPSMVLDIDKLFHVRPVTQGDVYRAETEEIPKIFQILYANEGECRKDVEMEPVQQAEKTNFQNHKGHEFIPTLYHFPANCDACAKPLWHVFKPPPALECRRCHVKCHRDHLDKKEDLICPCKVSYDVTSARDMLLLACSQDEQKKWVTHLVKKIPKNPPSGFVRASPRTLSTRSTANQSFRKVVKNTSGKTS
Method: (§1) Part II—Procedure for Determining ROCK Inhibition Ability of Test Compounds Using a Cell-Base Assay
(§2) The Cell-Based Assay for determining ROCK inhibition ability of test compounds utilized a genetically modified HAP1 cell line engineered to eliminate expression of either ROCK1 or ROCK2. In the procedure, HAP1 knockout cells are grown in Iscove's Modified Dulbecco's Medium that is additionally supplemented with 10% fetal bovine and 1x antibiotic-antimycotic mixture. Cells are plated in 96 well tissue culture plates at 1×10^5 cells/well (100 μL, of cells at 1×10^6/mL). Test compounds are solubilized in DMSO and diluted into the same media used to grow the cells. A 100 μL, aliquot of each compound dilution in media is added to each well containing the HAP1 cells and incubated at 37° C. for 30 minutes. Following compound incubation, the cells are pelleted by centrifugation at 1800 rpm for 5 minutes at 4° C. Media is removed from the cell pellet and the cells lysed and de-salted. An 80 μL, aliquot of each cell lysate is added to a single well of a 96-well high binding ELISA plate which has been pre-coated with a MYPT1 capture antibody and incubated at 4° C. overnight. The following day the ELISA plate is washed 4× with 0.05% Tween-20 in PBS. After washing, an anti-phospho-MYPT1 (Thr853) antibody is added and allowed to bind for 1 hour at room temperature. The wash step is repeated, and then an anti-rabbit HRP detection antibody is added and allowed to incubate at room temperature for 1 hour. The wash step is then repeated and 100 μL/well 1-Step™ Ultra TMB substrate is added to the ELISA plate and allowed to develop for approximately 5 minutes. The reaction is stopped by addition of H2SO4. Absorbance is read at 450 OD. Data is analyzed using GraphPad Prism software to calculate the 50% inhibitory concentration of test compound (IC50).

[2] = biological target: T2, GST-tagged human ROCK2 catalytic domain 1-553 (Homo sapiens, UniProt O75116); test: Isolated Enzyme Assay, ROCK2 (LANCE Ultra ULight-CREBtide FRET); assay type: biochemical; details: isolated enzyme assay; 30 μM highest concentration tested; read-out: Results from Isolated Enzyme Assay IC50 (μM) ROCK2
T2 construct: GST-tagged human ROCK2 catalytic domain 1-553 from Carna Biosciences (Cat #01-110); purchased Carna Biosciences 01-110; host or cells: baculovirus expression system
T2 sequence (O75116 1-553): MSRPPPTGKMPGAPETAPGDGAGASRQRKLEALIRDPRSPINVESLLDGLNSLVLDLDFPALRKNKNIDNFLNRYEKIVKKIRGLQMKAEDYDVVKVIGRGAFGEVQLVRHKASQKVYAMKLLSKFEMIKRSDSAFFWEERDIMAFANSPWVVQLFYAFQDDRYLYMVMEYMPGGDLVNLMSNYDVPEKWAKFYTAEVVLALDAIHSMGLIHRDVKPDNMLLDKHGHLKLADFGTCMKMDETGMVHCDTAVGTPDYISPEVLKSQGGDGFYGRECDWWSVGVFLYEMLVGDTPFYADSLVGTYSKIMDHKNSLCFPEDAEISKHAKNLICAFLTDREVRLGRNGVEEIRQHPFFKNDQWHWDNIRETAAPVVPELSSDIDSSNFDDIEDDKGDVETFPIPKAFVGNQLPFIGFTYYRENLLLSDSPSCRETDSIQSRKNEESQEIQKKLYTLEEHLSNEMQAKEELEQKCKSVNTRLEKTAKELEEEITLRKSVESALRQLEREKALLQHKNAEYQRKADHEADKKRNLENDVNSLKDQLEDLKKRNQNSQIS
Method: (§3) Exemplary compounds were tested for ability to inhibit Rho-associated protein kinase isoform 1 (ROCK1) and Rho-associated protein kinase isoform 2 (ROCK2). Assay procedures and results are described below.
(§4) Part I—Procedure for Determining ROCK Inhibition Ability of Test Compounds Using an Isolated Enzyme Assay
(§5) Protein constructs were purified from a baculovirus expression system. The peptide substrate was fluorescent LANCE® Ultra ULight-CREBtide: […] (PerkinElmer, # TRF0107-D). Kinase reactions were carried out in a 10 μL volume in 384-well plates: 50 nM ULight-CREBtide substrate, 2 nM constitutively active ROCK1 or ROCK2 kinase, and test compound in DMSO (or DMSO only for controls) were diluted into assay buffer containing 50 mM Tris-HCl (pH=7.5), 10 mM MgCl2, 1 mM EGTA, 0.01% Tween-20, and 2 mM DTT such that the final concentration of DMSO was 0.5%. After a 90 minute incubation at room temperature on a shaker table, the kinase reaction was stopped by addition of 10 mM EDTA, and phosphorylation of the substrate was detected by adding 1 nM LANCE® Ultra Europium-anti-phospho-CREB (ser133) antibody (PerkinElmer, # TRF0200-D) and incubating for 60 minutes on a shaker at room temperature. The fluorescence resonance energy transfer (FRET) signals were read and analyzed on an Envision™ 2103 Multilabel Reader (Perkin Elmer). The concentration of test compound required to inhibit substrate phosphorylation by 50% (the IC50) was calculated by non-linear regression using GraphPad PRIZM.

[3] = biological target: T3, GST-tagged human ROCK1 catalytic domain 1-477 (Homo sapiens, UniProt Q13464); test: Isolated Enzyme Assay, ROCK1 (LANCE Ultra ULight-CREBtide FRET); assay type: biochemical; details: isolated enzyme assay; 30 μM highest concentration tested; read-out: Results from Isolated Enzyme Assay IC50 (μM) ROCK1
T3 construct: human ROCK1 catalytic domain 1-477 from Carna Biosciences (cat #01-109); purchased Carna Biosciences 01-109; host or cells: baculovirus expression system
T3 sequence (Q13464 1-477): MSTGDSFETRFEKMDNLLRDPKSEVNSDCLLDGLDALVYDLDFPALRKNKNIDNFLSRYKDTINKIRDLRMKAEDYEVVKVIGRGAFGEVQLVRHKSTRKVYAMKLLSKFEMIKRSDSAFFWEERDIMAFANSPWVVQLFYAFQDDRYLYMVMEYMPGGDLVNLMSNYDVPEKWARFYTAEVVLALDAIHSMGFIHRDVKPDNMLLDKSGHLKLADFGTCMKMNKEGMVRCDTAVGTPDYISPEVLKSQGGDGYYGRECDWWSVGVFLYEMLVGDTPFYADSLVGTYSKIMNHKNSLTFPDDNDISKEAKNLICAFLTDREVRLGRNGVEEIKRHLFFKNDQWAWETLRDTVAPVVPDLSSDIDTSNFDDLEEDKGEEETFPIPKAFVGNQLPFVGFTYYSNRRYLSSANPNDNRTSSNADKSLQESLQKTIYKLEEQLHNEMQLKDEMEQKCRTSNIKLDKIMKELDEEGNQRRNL
Method: as §3, §4, §5

[4] = biological target: T4, ROCK2 (Homo sapiens, UniProt O75116); test: Cell-Based Assay, ROCK2 (HAP1 knockout cells, phospho-MYPT1 Thr853 ELISA); details: read-out: Results from Cell-Based Assay IC50 (μM) ROCK2
T4 construct: endogenous in cells; host or cells: HAP1 knockout cells
T4 sequence (O75116 whole entry): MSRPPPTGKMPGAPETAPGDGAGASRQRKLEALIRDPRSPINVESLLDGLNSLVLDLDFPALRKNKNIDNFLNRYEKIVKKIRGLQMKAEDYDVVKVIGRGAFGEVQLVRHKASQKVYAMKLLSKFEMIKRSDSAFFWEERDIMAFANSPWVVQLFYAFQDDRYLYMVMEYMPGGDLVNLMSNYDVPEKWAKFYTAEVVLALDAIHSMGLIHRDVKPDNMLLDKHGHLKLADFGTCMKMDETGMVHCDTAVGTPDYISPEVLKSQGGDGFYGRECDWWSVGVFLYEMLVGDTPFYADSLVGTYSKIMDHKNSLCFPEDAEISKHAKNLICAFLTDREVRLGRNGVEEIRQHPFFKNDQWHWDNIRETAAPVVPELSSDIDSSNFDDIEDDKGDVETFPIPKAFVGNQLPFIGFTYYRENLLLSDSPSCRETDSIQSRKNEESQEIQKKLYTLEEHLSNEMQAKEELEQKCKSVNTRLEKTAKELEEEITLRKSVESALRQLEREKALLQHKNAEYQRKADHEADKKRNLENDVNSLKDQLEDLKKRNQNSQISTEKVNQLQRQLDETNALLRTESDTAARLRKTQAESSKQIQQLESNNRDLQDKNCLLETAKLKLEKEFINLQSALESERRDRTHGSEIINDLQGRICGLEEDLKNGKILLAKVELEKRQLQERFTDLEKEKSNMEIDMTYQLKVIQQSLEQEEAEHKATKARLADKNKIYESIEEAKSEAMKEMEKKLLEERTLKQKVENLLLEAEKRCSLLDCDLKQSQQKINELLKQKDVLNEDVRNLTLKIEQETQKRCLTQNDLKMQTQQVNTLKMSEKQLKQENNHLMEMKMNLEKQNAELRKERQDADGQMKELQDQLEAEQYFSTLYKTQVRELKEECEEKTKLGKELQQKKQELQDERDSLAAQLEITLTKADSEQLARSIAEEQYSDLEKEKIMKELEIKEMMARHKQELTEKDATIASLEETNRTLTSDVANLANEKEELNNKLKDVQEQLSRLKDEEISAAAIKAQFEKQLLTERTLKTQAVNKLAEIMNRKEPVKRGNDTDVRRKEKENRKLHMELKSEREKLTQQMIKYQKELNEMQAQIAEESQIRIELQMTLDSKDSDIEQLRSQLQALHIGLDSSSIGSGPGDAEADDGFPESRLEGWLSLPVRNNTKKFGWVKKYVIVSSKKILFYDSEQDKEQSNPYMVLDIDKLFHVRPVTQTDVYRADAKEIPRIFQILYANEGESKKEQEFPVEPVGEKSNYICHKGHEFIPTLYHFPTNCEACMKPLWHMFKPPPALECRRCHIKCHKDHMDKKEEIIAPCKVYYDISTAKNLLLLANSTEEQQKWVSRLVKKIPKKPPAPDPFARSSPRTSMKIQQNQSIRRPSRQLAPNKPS
Method: as §1, §2

Structure (SMILES) | IC50 ([1]; class symbols) [µM] | IC50 [2] [µM] | IC50 [3] [µM] | IC50 ([4]; class symbols) [µM] | IC50 ([1]; numeric bound) [µM] | IC50 ([4]; numeric bound) [µM]
Cc1cc(C(=O)Nc2cncc(-c3nsc(Nc4ccc5[nH]ncc5c4Cl)n3)c2)n(C)n1 [IV-42] |  | > 30 | > 30 | < 1 | > 10 | 
Cn1nncc1C(=O)Nc1cccc(-c2nsc(Nc3ccc4[nH]ncc4c3Cl)n2)c1 [IV-62] |  | < 1 | < 1 | < 1 | > 10 | 
Cc1nc(C)c(C(=O)Nc2cccc(-c3nsc(Nc4ccc5[nH]ncc5c4Cl)n3)c2)o1 [IV-61] |  | < 1 | < 1 | < 1 | > 10 | 
O=C(Nc1cccc(-c2nsc(Nc3ccc4[nH]ncc4c3Cl)n2)c1)c1cc[nH]n1 [IV-75] |  | < 1 | < 1 | < 1 | > 10 | 
CC1(C)CCN(c2cccc(-c3nsc(Nc4ccc5[nH]ncc5c4Cl)n3)c2)C1=O [IV-56] | 1 to 15 | < 1 | < 1 | < 1 |  | 
CC1(C)CN(c2cccc(-c3nsc(Nc4ccc5[nH]ncc5c4Br)n3)c2)C(=O)O1 [IV-35] | 1 to 15 | < 1 | < 1 | < 1 |  | 
CC(C)N1CCN(c2cc(-c3nsc(Nc4ccc5[nH]ncc5c4Cl)n3)ccn2)C1=O [IV-90] | 1 to 15 | < 1 | < 1 | < 1 |  | 
COc1ncc(C(=O)Nc2cc(-c3nsc(Nc4ccc5[nH]ncc5c4Cl)n3)cn(C)c2=O)cn1 [IV-7] |  | < 1 | > 30 |  | > 10 | > 10
CC1COCCN1C(=O)Nc1cc(-c2nsc(Nc3ccc4[nH]ncc4c3Cl)n2)ccn1 (stereo not drawn) [IV-38] | 1 to 15 | < 1 | < 1 | < 1 |  | 
CC(C)(O)CNC(=O)c1cc(-c2nsc(Nc3ccc4[nH]ncc4c3Cl)n2)ccc1F [IV-22] | 1 to 15 | < 1 | < 1 | < 1 |  | 
CNC(=O)c1cc(-c2nsc(Nc3ccc4[nH]ncc4c3Cl)n2)cn(C)c1=O [IV-2] |  | < 1 | < 1 | < 1 | > 10 | 
Cn1cnc2c(-c3nsc(Nc4ccc5[nH]ncc5c4Cl)n3)cccc21 [IV-82] | 1 to 15 | 1 to 15 | < 1 | < 1 |  | 
COc1ncc(C(=O)Nc2cncc(-c3nsc(Nc4ccc5[nH]ncc5c4Cl)n3)c2)cn1 [IV-8] |  | < 1 | > 30 |  | > 10 | > 10
O=C(Nc1cccnc1)c1cccc(-c2nsc(Nc3ccc4[nH]ncc4c3Cl)n2)c1 [IV-65] |  | < 1 | < 1 | < 1 | > 10 | 
Cc1cnc(-c2cc(-c3nsc(Nc4ccc5[nH]ncc5c4Cl)n3)cn(C)c2=O)o1 [IV-12] |  | < 1 | < 1 | < 1 | > 10 | 
Cc1coc(-c2cc(-c3nsc(Nc4ccc5[nH]ncc5c4Cl)n3)ccn2)n1 [IV-59] |  | < 1 | > 30 | < 1 | > 10 | 
C[C@H]1CN(c2cccc(-c3nsc(Nc4ccc5[nH]ncc5c4Cl)n3)c2)C(=O)O1 [IV-32] | 1 to 15 | < 1 | < 1 | < 1 |  | 
CCCOC(=O)Nc1cc(-c2nsc(Nc3ccc4[nH]ncc4c3Cl)n2)cn(C)c1=O [IV-5] | 1 to 15 | < 1 | < 1 | < 1 |  | 
O=C(CC1CCCO1)Nc1cccc(-c2nsc(Nc3ccc4[nH]ncc4c3Cl)n2)c1 (stereo not drawn) [IV-71] | 1 to 15 | < 1 | < 1 | < 1 |  | 
Cn1cc(-c2nsc(Nc3ccc4[nH]ncc4c3Cl)n2)cc(NC(=O)c2ccccc2F)c1=O [IV-50] |  | < 1 | > 30 | < 1 | > 10 | 
Oc1ccn(-c2cccc(-c3nsc(Nc4ccc5[nH]ncc5c4Cl)n3)c2)n1 [IV-17] |  | < 1 | < 1 | 1 to 15 | > 10 | 
COc1ncc(C(=O)Nc2cccc(-c3nsc(Nc4ccc5[nH]ncc5c4Cl)n3)c2)cn1 [IV-70] |  | < 1 | < 1 | < 1 | > 10 | 
Cn1cc(C(=O)Nc2cccc(-c3nsc(Nc4ccc5[nH]ncc5c4Cl)n3)c2)c(C(F)(F)F)n1 [IV-72] | 1 to 15 | < 1 | < 1 | < 1 |  | 
O=C(NCC(F)(F)F)c1cccc(-c2nsc(Nc3ccc4[nH]ncc4c3Cl)n2)c1 [IV-81] |  | < 1 | < 1 | < 1 | > 10 | 

Further lines, results first:

IC50 ([1]; class symbols) [µM] | IC50 [2] [µM] | IC50 [3] [µM] | IC50 ([4]; class symbols) [µM] | IC50 ([1]; numeric bound) [µM] | IC50 ([4]; numeric bound) [µM] | Structure (SMILES)
1 to 15 | < 1 | < 1 | < 1 |  |  | O=C(Nc1cccc(-c2nsc(Nc3ccc4[nH]ncc4c3Cl)n2)c1)c1ccccn1 [IV-74]
 | < 1 | < 1 | < 1 | > 10 |  | Cn1ccc(C(=O)Nc2cccc(-c3nsc(Nc4ccc5[nH]ncc5c4Cl)n3)c2)n1 [IV-77]
 | < 1 | < 1 | < 1 | > 10 |  | CN1CCC(NC(=O)c2cc(-c3nsc(Nc4ccc5[nH]ncc5c4Cl)n3)ccc2F)CC1 [IV-46]
 | < 1 | > 30 |  | > 10 | > 10 | Cn1ccc(C(=O)Nc2cc(-c3nsc(Nc4ccc5[nH]ncc5c4Cl)n3)cn(C)c2=O)n1 [IV-10]
1 to 15 | < 1 | < 1 | < 1 |  |  | O=C(NC1CCCC1)c1cc(-c2nsc(Nc3ccc4[nH]ncc4c3Cl)n2)ccc1F [IV-48]
1 to 15 | < 1 | < 1 | < 1 |  |  | C[C@@H]1CN(c2cccc(-c3nsc(Nc4ccc5[nH]ncc5c4Cl)n3)c2)C(=O)O1 [IV-31]
 | < 1 | < 1 | < 1 | > 10 |  | Cn1ccnc1C(=O)Nc1cccc(-c2nsc(Nc3ccc4[nH]ncc4c3Cl)n2)c1 [IV-73]
 | < 1 | < 1 | < 1 | > 10 |  | Cc1coc(-c2cccc(-c3nsc(Nc4ccc5[nH]ncc5c4F)n3)c2)n1 [IV-15]
1 to 15 | < 1 | < 1 | < 1 |  |  | O=C1CCCN1c1cccc(-c2nsc(Nc3ccc4[nH]ncc4c3Cl)n2)c1 [IV-83]
 | < 1 | < 1 | < 1 | > 10 |  | Cc1cc(NC(=O)c2cn(C)cn2)cc(-c2nsc(Nc3ccc4[nH]ncc4c3Cl)n2)n1 [IV-26]
 | < 1 | < 1 | < 1 | > 10 |  | CNC(=O)c1cccc(-c2nsc(Nc3ccc4[nH]ncc4c3Cl)n2)c1 [IV-107]
 | < 1 | < 1 | < 1 | > 10 |  | CNC(=O)c1cc(-c2nsc(Nc3ccc4[nH]ncc4c3Cl)n2)ccc1F [IV-49]
